Measurements: US20130079309A1, “Method Of Treating Acute Lung Injury Using Sphingosine 1 Phosphate Analogs Or Sphingosine 1 Phosphate Receptor Agonists” (The Board of Trustees of the University of Illinois, priority 2010, published 2013)

Experiments:
[1] = tested on: bleomycin-induced ALI in C57/BL6 mice; details: Shea et al., 2010; cited from earlier work
[2] = tested on: HPAEC; assay: Immunofluorescence of F-actin cytoskeletal rearrangement; type: cell-based, human; details: 1 μM, 5 min (FTY720 5 and 30 min)
Experimental: Immunofluorescence was used to assess cytoskeletal rearrangements of […] cells in response to treatment with FTY720 analogs. Confluent HPAEC were stimulated with vehicle control or 1 μM S1P, 1R, 2R, or 3R for 5 min or with FTY720 (1 μM) for 30 min. EC were then fixed in 3.7% formaldehyde for 10 min, permeabilized with 0.25% Triton X-100 for 5 min, washed in PBS, blocked with 2% bovine serum albumin in Tris-buffered saline with Tween 20 for 1 h, and then incubated for 1 h at room temperature with the primary antibody of interest. After washing, EC were incubated with the appropriate secondary antibody conjugated to immunofluorescent dyes (or Texas Red-conjugated phalloidin for actin staining) for 1 h at room temperature. After further washing with Tris-buffered saline with Tween 20, coverslips were mounted using Prolong Anti-Fade Reagent (Invitrogen) and analyzed using a Nikon Eclipse TE2000 inverted microscope (Nikon, Melville, N.Y.).

[3] = tested on: LPS-induced lung injury in C57BL/6 mice; details: single intraperitoneal injection; Peng et al., 2004; cited from earlier work
[4] = tested on: MLC; assay: Western blotting of HPAEC lysates for phospho-MLC; type: cell-based, human; details: 5 min
Experimental: (§1) After treatment as outlined for individual experiments, confluent HPAEC were lysed for Western blotting with phospho-MLC, pan-MLC, phospho-ERK, or pan-ERK antibodies. […] Membranes were then immunoblotted with primary antibodies (1:500-1000, 4° C., overnight) followed by secondary antibodies conjugated to horseradish peroxidase (1:5000, room temperature, 30 min) and detected with enhanced chemiluminescence (Pierce ECL or SuperSignal West Dura; Pierce Biotechnology, Rockford, Ill.) on Biomax MR film (Carestream Health, Rochester, N.Y.).

[5] = tested on: HPAEC; assay: Intracellular calcium by Fura-2; type: cell-based, human; details: 1 μM
Experimental: To further explore the mechanistic differences in barrier regulation, intracellular calcium responses to the FTY720 analogs, S1P, and FTY720 were examined using Fura-2 (Harbeck et al., 2006, Sci STKE 2006: p16). HPAEC plated on 25-mm glass coverslips were loaded with 1 μM Fura-2/acetoxymethyl ester (Invitrogen, Carlsbad, Calif.) for 20 min at 37° C. in KRBH5 buffer (Krebs-Ringer-bicarbonate solution containing 119 mM NaCl, 4.7 mM KCl, 2.5 mM CaCl2, 1 mM MgCl2, 1 mM KH2PO4, 25 mM NaHCO3, mM HEPES-NaOH (pH 7.4), and 5 mM glucose). After replacement of the Fura-2 loading buffer with fresh KRBH5, coverslips were placed into the specimen stage of an inverted fluorescence microscope (Nikon TE-2000U). A Nikon Super Fluor 10× objective was used for these studies. Filters (340- and 380-nm excitation and 530-nm emission) were used for Fura-2 dual excitation ratio imaging. […] Fura-2 ratios were converted to [Ca^2+] using the equation: [Ca^2+]=(Kd′[(R−Rmin)/(Rmax−R)]×Sf/Sb) (Grynkiewicz et al., 1985, J Biol Chem 260: 3440-3450), where Kd′ is the dissociation constant for Fura-2 in the cytosol (225 nM) and Sf and Sb are the measured emission intensities at 380 nm for Ca^2+-free and Ca^2+-bound Fura-2, respectively. Data summaries for all Ca^2+ measurements are expressed as the means±S.E.

[6] = tested on: HPAEC; assay: Transwell transendothelial permeability assay (FITC-dextran); type: cell-based, human; details: 1 μM (3R, 3S 25 μM), 1 h before FITC-dextran, 2-h incubation
Experimental: As a complementary approach to further characterize the barrier-protective effects of these FTY720 analogs in vitro, the permeability of FITC-labeled dextran across the pulmonary EC monolayer was assayed in response to treatment by the FTY720 analogs. […] Data were normalized to unstimulated control. n=3 independent experiments per condition; *, p<0.01 versus unstimulated condition (see FIG. 26).

[7] = tested on: β-arrestin; details: 1 μM (SEW2871 10 μM; (S)-FTY720-phosphonate 1, 10, 50 μM), 5 h
Experimental: After another 2 h-incubation with fluorescence substrate, the fluorescence intensity (blue and green channels) were detected and the blue/green emission ratio was used as the activation indicator.

[8] = molecular target: T1, S1P receptor 1 (S1PR1) (Mus musculus, UniProt O08530); assay: S1PR1 levels in lung homogenates of bleomycin mice by Western blotting; type: in vivo; details: 14 days after bleomycin
T1 construct: Lung homogenates were collected 14 days after bleomycin instillation; from tissue; host or cells: mouse lung (C57/BL6, bleomycin-injured)
Experimental: Lung homogenates were collected 14 days after bleomycin instillation. S1PR1 protein expression was determined by Western blotting (representative blots shown), quantified by densitometry, and normalized to actin concentration in the samples. Mean±S.D. is shown. N=2-3 animals per group.
As discussed above, (S)-FTY720-phosphonate maintains S1PR1 expression in mouse lungs after 24 hr relative to other S1PR1 agonists (FIG. 17). The data shown in FIG. 23 extend these observations to 14 days.

[9] = tested on: ERK; assay: Western blotting of HPAEC lysates for phospho-ERK; type: cell-based, human; details: 5 min
Experimental: as §1

T1 sequence (O08530 whole entry): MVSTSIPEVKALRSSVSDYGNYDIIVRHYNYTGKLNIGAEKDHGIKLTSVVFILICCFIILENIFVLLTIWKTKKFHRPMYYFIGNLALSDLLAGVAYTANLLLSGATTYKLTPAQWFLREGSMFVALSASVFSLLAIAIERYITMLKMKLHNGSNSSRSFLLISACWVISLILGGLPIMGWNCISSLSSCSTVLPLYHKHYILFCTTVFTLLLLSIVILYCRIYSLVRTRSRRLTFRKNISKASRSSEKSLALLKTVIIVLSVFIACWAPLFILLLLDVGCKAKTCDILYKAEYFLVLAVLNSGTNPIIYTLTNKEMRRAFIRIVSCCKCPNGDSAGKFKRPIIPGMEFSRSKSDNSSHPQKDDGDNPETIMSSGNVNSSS

Compound | lung injury and mortality in bleomycin-injured mice on prolonged exposure [1] | cortical actin ring formation / F-actin rearrangement [2] | murine LPS induced pulmonary injury, 24 hours after LPS [3] | MLC phosphorylation [4] | intracellular calcium [Ca2+]i [5] | EC permeability to FITC-dextran vs control EC [6] | activation of β-arrestin (blue/green emission ratio) [7] | S1PR1 levels in lungs, compared to FTY720-treated animals [8] | ERK phosphorylation [9]
CCCCCCCCc1ccc(CCC(N)(CO)CO)cc1 [FTY720, 2-amino-2-[2-(4-octylphenyl)ethyl]propane-1,3-diol] | increased lung injury and mortality | failed to elicit cortical actin ring formation | attenuate murine LPS induced-pulmonary injury | Neither FTY720 nor any of its analogs induced significant MLC phosphorylation | only S1P produced a transient Ca^2+ spike | significantly decreased permeability | strongly activated | – | –
CCCCCCCCc1ccc(CC[C@@](N)(CO)CCP(=O)(O)O)cc1 [1S, (S)-3-amino-3-(hydroxymethyl)-5-(4-octylphenyl)pentylphosphonic acid] | – | – | – | – | – | – | only slightly activated | higher levels of S1PR1 | failed to induce phosphorylation
